Test results as given in the supplement of paper PMC6045584.
± gives the standard deviation of the averaged measurements.

Key:
[1] = compound: CO[C@H]1C[C@@H]2CC[C@@H](C)[C@@](O)(O2)C(=O)C(=O)N2CCCC[C@H]2C(=O)O[C@H]([C@H](C)C[C@@H]2CC[C@@H](OCCO)[C@H](OC)C2)CC(=O)[C@H](C)/C=C(\C)[C@@H](O)[C@@H](OC)C(=O)[C@H](C)C[C@H](C)/C=C/C=C/C=C/1C [EVEROLIMUS]; assay: surviving fraction relative to DMSO-only wells; higher = less growth inhibition; details: exposure time: 5 days
How it was run: (§1)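 Lines were retained only if, across three screens, replicate Pearson r was >0.7 and median Z' was >0.3. Viability was measured as CellTiter-Glo luminescence and reported as surviving fraction relative to the median of DMSO-only wells. Readings followed 10 minutes at room temperature, after log-phase tumour cells seeded at 250–500 per well in 384-well plates had been exposed, from 24 hours after seeding, continuously for five days to inhibitors at 0.5, 1, 5, 10, 50, 100, 500 and 1000 nM.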

[2] = compound: C#Cc1cccc(Nc2ncnc3cc(OCCOC)c(OCCOC)cc23)c1 [ERLOTINIB]; assay: as above; details: exposure time: 5 days
How it was run: as §1

[3] = compound: Cc1nc(Nc2n[nH]c3c2CN(C(=O)N[C@H](CN(C)C)c2ccccc2)C3(C)C)c2sccc2n1; assay: area under dose-response curve of surviving fraction (unscaled, Aref=0) (surviving fraction x log10(nM)); higher = more resistant; details: exposure time: 5 days; dose range 0.5-1000 nM
How it was run: (§2)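 Three screens per tumour cell line were run in 384-well plates at eight inhibitor concentrations from 0.5 to 1000 nM over five days. Surviving fractions, from CellTiter-Glo luminescence normalised to DMSO-only wells, were fitted with 3-parameter logistic curves in the drc R package. The reported area under the curve is the unscaled activity area. It spans log10 dose, and Aref is 0.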

[4] = compound: COc1cc([C@@H]2c3cc4c(cc3[C@@H](O[C@@H]3O[C@@H]5CO[C@@H](C)O[C@H]5[C@H](O)[C@H]3O)[C@H]3COC(=O)[C@H]23)OCO4)cc(OC)c1O [ETOPOSIDE]; assay: as above; details: exposure time: 5 days; dose range 0.5-1000 nM
How it was run: as §2

[5] = compound: CCC1=C[C@@H]2CN(C1)Cc1c([nH]c3ccccc13)[C@@](C(=O)OC)(c1cc3c(cc1OC)N(C)[C@H]1[C@@](O)(C(=O)OC)[C@H](OC(C)=O)[C@]4(CC)C=CCN5CC[C@]31[C@@H]54)C2 [VINORELBINE]; assay: as above; details: exposure time: 5 days; dose range 0.5-1000 nM
How it was run: as §2

[6] = compound: Nc1ccn([C@@H]2O[C@H](CO)[C@@H](O)C2(F)F)c(=O)n1 [GEMCITABINE]; assay: as above; details: exposure time: 5 days; dose range 0.5-1000 nM
How it was run: as §2

Test System | surviving fraction ([1]; 0.5 nM) | surviving fraction ([1]; 1 nM) | surviving fraction ([1]; 5 nM) | surviving fraction ([1]; 10 nM) | surviving fraction ([1]; 50 nM) | surviving fraction ([1]; 100 nM) | surviving fraction ([1]; 500 nM) | surviving fraction ([1]; 1000 nM) | surviving fraction ([2]; 0.5 nM) | surviving fraction ([2]; 1 nM) | surviving fraction ([2]; 5 nM) | surviving fraction ([2]; 10 nM) | surviving fraction ([2]; 50 nM) | surviving fraction ([2]; 100 nM) | surviving fraction ([2]; 500 nM) | surviving fraction ([2]; 1000 nM) | area under dose-response curve [3] | area under dose-response curve [4] | area under dose-response curve [5] | area under dose-response curve [6]
22RV1 PROSTATE | 0.788 ± 0.065 | 0.588 ± 0.14 | 0.452 ± 0.043 | 0.375 ± 0.031 | 0.515 ± 0.24 | 0.374 ± 0.032 | 0.365 ± 0.061 | 0.375 ± 0.028 | 1.1 ± 0.11 | 1.01 ± 0.12 | 1.03 ± 0.048 | 1 ± 0.028 | 1.04 ± 0.072 | 0.956 ± 0.17 | 0.991 ± 0.18 | 1.08 ± 0.021 | 1.33 | 2.73 | 1.53 | –
93VU HEADNECK | 0.953 ± 0.098 | 0.905 ± 0.076 | 0.865 ± 0.024 | 0.841 ± 0.065 | 0.85 ± 0.051 | 0.767 ± 0.11 | 0.706 ± 0.027 | 0.649 ± 0.049 | 1.1 ± 0.058 | 1.04 ± 0.095 | 1.1 ± 0.067 | 1.04 ± 0.12 | 1.06 ± 0.051 | 0.97 ± 0.15 | 0.514 ± 0.066 | 0.416 ± 0.034 | 1.18 | 3.41 | 2.19 | 2
143B BONE | 0.954 ± 0.032 | 0.948 ± 0.022 | 0.846 ± 0.03 | 0.824 ± 0.018 | 0.8355 ± 0.00071 | 0.825 ± 0.029 | 0.793 ± 0.057 | 0.827 ± 0.096 | – | 1.11 ± 0.067 | 1.13 ± 0.067 | – | 1.15 ± 0.053 | 1.17 ± 0.067 | 1.19 ± 0.14 | 1.15 ± 0.16 | 1.67 | 3.04 | 1.92 | –
A549 LUNG | 0.962 ± 0.022 | 0.927 ± 0.018 | 0.8767 ± 0.0076 | 0.842 ± 0.017 | 0.855 ± 0.041 | 0.826 ± 0.048 | 0.777 ± 0.0096 | 0.759 ± 0.058 | – | 1.06 ± 0.026 | 1.06 ± 0.027 | 1.056 ± 0.0021 | 1.05 ± 0.022 | – | – | 1.03 ± 0.029 | 1.86 | – | 2.2 | 1.76
ASKA SYNOVIAL | 1 ± 0.077 | 0.93 ± 0.1 | 0.787 ± 0.085 | 0.62 ± 0.049 | 0.612 ± 0.022 | 0.576 ± 0.051 | 0.531 ± 0.036 | 0.577 ± 0.04 | 1.12 ± 0.047 | 1.15 ± 0.07 | 1.18 ± 0.06 | 1.19 ± 0.036 | – | 1.15 ± 0.067 | 1.09 ± 0.033 | 0.987 ± 0.099 | 2.66 | 2.38 | 1.36 | 1.03
BT20 BREAST | 0.595 ± 0.042 | 0.46 ± 0.037 | 0.394 ± 0.041 | 0.378 ± 0.042 | 0.353 ± 0.015 | 0.369 ± 0.02 | 0.34 ± 0.018 | 0.374 ± 0.018 | 1.22 ± 0.026 | 1.19 ± 0.11 | 1.19 ± 0.11 | 1.13 ± 0.069 | 1.08 ± 0.069 | 1.12 ± 0.034 | 1.03 ± 0.034 | 0.947 ± 0.081 | 2.78 | 2.9 | 1.54 | 1.55
CAL120 BREAST | 0.707 ± 0.073 | 0.602 ± 0.062 | 0.501 ± 0.028 | 0.486 ± 0.026 | 0.463 ± 0.007 | 0.45 ± 0.021 | 0.424 ± 0.021 | 0.412 ± 0.0054 | 0.971 ± 0.033 | 0.964 ± 0.036 | 0.965 ± 0.041 | 0.963 ± 0.017 | 0.988 ± 0.012 | 0.976 ± 0.052 | 0.967 ± 0.035 | 0.958 ± 0.038 | 1.08 | 2.9 | 1.59 | –
HCC38 BREAST | 1.17 ± 0.022 | 1.01 ± 0.065 | 0.897 ± 0.11 | 0.925 ± 0.069 | 0.795 ± 0.08 | 0.888 ± 0.033 | 0.733 ± 0.024 | 0.852 ± 0.027 | 1.16 ± 0.22 | 1.22 ± 0.14 | 1.48 ± 0.025 | 1.29 ± 0.15 | 1.54 ± 0.15 | 1.17 ± 0.13 | 1.19 ± 0.2 | 1.1 ± 0.16 | 1.16 | – | 2.07 | 1.01
HCC202 BREAST | 1 ± 0.083 | 0.79 ± 0.055 | 0.548 ± 0.15 | 0.578 ± 0.13 | 0.383 ± 0.093 | 0.471 ± 0.1 | 0.44 ± 0.054 | 0.385 ± 0.14 | 1.37 ± 0.29 | – | 1.2 ± 0.2 | 1.2 ± 0.12 | 1.64 ± 0.29 | 1.32 ± 0.28 | – | 0.762 ± 0.15 | 2.16 | – | 1.85 | –
HMT3552 BREAST | 0.742 ± 0.097 | 0.6117 ± 0.0057 | 0.591 ± 0.021 | 0.598 ± 0.032 | 0.649 ± 0.016 | 0.616 ± 0.049 | 0.545 ± 0.05 | 0.549 ± 0.067 | 1.03 ± 0.024 | 1.04 ± 0.036 | 0.994 ± 0.029 | 1.03 ± 0.02 | 1.02 ± 0.064 | 0.957 ± 0.034 | 0.85 ± 0.08 | 0.808 ± 0.053 | – | – | – | 2.53
HOSMNG BONE | 1.03 ± 0.013 | 0.95 ± 0.051 | 0.951 ± 0.11 | 0.979 ± 0.07 | 1 ± 0.07 | 1.05 ± 0.1 | 0.999 ± 0.085 | 1.03 ± 0.027 | – | 1 ± 0.041 | 0.915 ± 0.044 | 0.947 ± 0.078 | 0.963 ± 0.1 | – | 1.1 ± 0.064 | 0.957 ± 0.044 | 2.58 | – | 2.25 | 1.49
HS57T BREAST | 0.614 ± 0.029 | 0.535 ± 0.0078 | 0.497 ± 0.031 | 0.445 ± 0.016 | 0.447 ± 0.024 | 0.44 ± 0.042 | 0.373 ± 0.024 | 0.387 ± 0.045 | 1.03 ± 0.086 | 1.02 ± 0.071 | 1.06 ± 0.046 | 1.1 ± 0.052 | – | 1.04 ± 0.074 | 0.999 ± 0.046 | 0.971 ± 0.074 | – | – | – | –
KPD BONE | 0.603 ± 0.044 | 0.529 ± 0.026 | 0.457 ± 0.016 | 0.422 ± 0.019 | 0.408 ± 0.025 | 0.384 ± 0.017 | 0.343 ± 0.012 | 0.338 ± 0.02 | 1.07 ± 0.11 | 1.03 ± 0.042 | 1.06 ± 0.076 | 1.07 ± 0.075 | 1.18 ± 0.035 | 1.11 ± 0.035 | 1.07 ± 0.11 | 1.05 ± 0.096 | 1.06 | 2.77 | 2.29 | –
MDAMB134 BREAST | 0.843 | 0.789 ± 0.071 | 0.63 ± 0.069 | 0.642 ± 0.11 | 0.616 ± 0.1 | 0.688 ± 0.11 | 0.569 ± 0.11 | 0.573 ± 0.09 | – | 0.92 ± 0.024 | 0.899 ± 0.018 | 0.91 ± 0.059 | 1.13 ± 0.033 | 1.15 ± 0.17 | – | 1.08 ± 0.088 | 3.15 | 3.5 | 2.38 | –
